Several values for one entry are separate records, joined by “and”; a condition that tells them apart may be missing. Identical values can stand only once. Like-named read-outs stand apart in the source and are kept apart here.
Test: Placebo controlled, dose escalation pharmacokinetic study of oral (Z)-Endoxifen capsules (serum endoxifen; incl. accumulation ratios and dose linearity)
Type: in vivo, human
Conditions: for AUC(0-inf) / AUC(0-t) / Cmax / Tmax / Vd/F / concentration at 72 h / concentration at 120 h / concentration at 0.5 h / concentration at 1 h / concentration at 2 h / concentration at 3 h / concentration at 4 h / concentration at 5 h / concentration at 8 h / concentration at 10 h / concentration at 12 h / concentration at 24 h: female, human, serum, oral; for concentration at 72 h: Day 4 Hr 72; for concentration at 120 h: Day 6 Hr 120; for concentration at 0.5 h: Day 1 hr 0.5; for concentration at 1 h: Day 1 hr 1; for concentration at 2 h: Day 1 hr 2; for concentration at 3 h: Day 1 hr 3; for concentration at 4 h: Day 1 hr 4; for concentration at 5 h: Day 1 hr 5; for concentration at 8 h: Day 1 hr 8; for concentration at 10 h: Day 1 hr 10; for concentration at 12 h: Day 1 hr 12; for concentration at 24 h: Day 1 hr 24
Excerpt: An objective of the study was to assess the safety and tolerability of oral (Z)-Endoxifen when administered […] orally as a capsule to healthy female volunteers. A secondary objective was to assess the pharmacokinetics of multiple doses of oral (Z)-Endoxifen in the subjects.
Generally, healthy female volunteers aged ≥18 years and ≤65 years were enrolled. 24 participants were enrolled in 3 cohorts and will be administered study drug orally. Three dose levels of orally administered (Z)-Endoxifen were investigated in 3 cohorts. In each cohort participants were randomized to receive an oral (Z)-Endoxifen or placebo in a blinded fashion. Enteric-resistant capsules used in the study were designed as delayed release capsules to resist rupture for at least 30 minutes, but typically, for about 2 hours, under gastric conditions and then open fully in intestinal fluid (DRCaps; Capsugel, a Lonza Company, USA). Enteric-resistant (Swedish Orange size Zero (0); Capsugel, USA) DRCaps capsules manually filled with 1, 2 or 4 mg of (Z)-endoxifen neat in compliance with GMP requirements were used. Placebo capsules contained microcrystalline cellulose an inert common capsule and tablet excipient.
Each cohort enrolled 8 participants, with 6 participants receiving (Z)-Endoxifen 1 mg capsules orally at 1 mg (Cohort 1), 2 mg (Cohort 2) or 4 mg (Cohort 3) doses and 2 participants receiving matching placebo capsules. In Cohort 1 (Dose Level=1 mg) two participants (sentinels) were dosed 24 hours prior to the remaining participants. One sentinel was dosed with (Z)-Endoxifen and the other with placebo. The remaining six participants in Cohort 1 were dosed as no safety concerns were identified in the sentinel participants. The non-sentinel participants in Cohort 1 were admitted to the clinical research facility at least one day later than the sentinels. There were no sentinels in Cohorts 2 and 3.
Participant engagement in this study was for a period of 56 days. These included a 28 day screening period, and a 7 day post treatment period for Pharmacokinetic (PK) sampling. There were two confinement periods, one at the beginning and one at the end of the dosing periods. Participants were confined to the clinical facility on Days-1 through to Day 2 and Days 21 and 22. If participants were to experience any clinically significant adverse events during the study, they would have been required to remain in the clinical facility for further observation at the discretion of the Principal Investigator (PI).
Healthy female volunteers were screened within 28 days prior to commencement of dosing. Participants were admitted to the clinical facility on Day-1 for up to 3 days. The first dose of (Z)-Endoxifen or placebo capsules was administered on Day 1. Following completion of all safety assessments and sampling for PK analyses, participants were discharged from the clinical facility on Day 2. The first dose on Day 1 was followed by a 6-day treatment free period (Days 2-7). Each participant returned to the clinical facility for PK blood draws and safety assessments during the treatment free period on study Days 4 and 6. On Day 8 participants commenced daily administration of (Z)-Endoxifen capsules or placebo capsules for 14 consecutive days (Days 8-21). Participants were supplied with study drug capsules and asked to self administer daily. Participants visited the clinical facility on Days 11, 14 and 17, prior to dose administration, for PK blood draws and safety assessments. On the morning of Day 21 each participant returned to the clinical facility prior to dose administration and were confined to the facility until Day 22 to allow for the collection of PK blood draws and safety assessments. The Day 21 dose was the last administration of study drug. Participants were discharged from the clinical facility on Day 22 and returned for PK blood draws and safety assessments on study Days 24, 26, and 28. […]

[1] = 1 mg, read-out: Serum concentration, GeoMean
[2] = 1 mg, read-out: Serum concentration, Max
[3] = 1 mg, read-out: Serum concentration, Mean
[4] = 1 mg, read-out: Serum concentration, Median
[5] = 1 mg, read-out: Serum concentration, Min

Compound: CC/C(=C(\c1ccc(O)cc1)c1ccc(OCCNC)cc1)c1ccccc1 [(Z)-Endoxifen, (Z)-4-(1-(4-(2-(methylamino)ethoxy)phenyl)-2-phenylbut-1-enyl) phenol]
- AUC(0-inf), individual subjects (Dose: 2 mg oral, Day 1): 1188 ng·h/mL and 755 ng·h/mL and 954 ng·h/mL and 1242 ng·h/mL and 1489 ng·h/mL
- AUC(0-inf), individual subjects (Dose: 4 mg oral, Day 1): 1098 ng·h/mL and 1642 ng·h/mL and 736 ng·h/mL and 1883 ng·h/mL and 2116 ng·h/mL and 4624 ng·h/mL
- Time to maximum serum endoxifen levels (FIG. 3 and FIG. 4): about 10 hours
- dose response of Cmax and AUC24hr (across the three dose levels, once daily oral): dose-proportionality (linear dose response)
- Mean Ratio AUC24 hr(Day 21)/AUC0-inf(Day 1) (dose 1 mg (n = 5)): 0.81 (SD 0.20)
- Mean Ratio AUC24 hr(Day 21)/AUC24 hr(Day 1) (dose 1 mg (n = 5)): 3.09 (SD 1.49)
- Mean Ratio Cmax(Day 21)/Cmax(Day 1) (dose 1 mg (n = 5)): 2.74 (SD 1.29)
- Mean Ratio AUC24 hr(Day 21)/AUC0-inf(Day 1) (dose 2 mg (n = 6)): 0.85 (SD 0.20)
- Mean Ratio AUC24 hr(Day 21)/AUC24 hr(Day 1) (dose 2 mg (n = 6)): 3.04 (SD 0.79)
- Mean Ratio Cmax(Day 21)/Cmax(Day 1) (dose 2 mg (n = 6)): 2.92 (SD 0.88)
- Mean Ratio AUC24 hr(Day 21)/AUC0-inf(Day 1) (dose 4 mg (n = 6)): 1.08 (SD 0.38)
- Mean Ratio AUC24 hr(Day 21)/AUC24 hr(Day 1) (dose 4 mg (n = 6)): 3.47 (SD 1.08)
- Mean Ratio Cmax(Day 21)/Cmax(Day 1) (dose 4 mg (n = 6)): 3.56 (SD 1.01)
- AUC(0-inf) (1 mg, Day 1, 1 mg, N = 5, read-out: AUC0-inf, GeoMean): 559 ng·h/mL
- AUC(0-inf) (1 mg, Day 1, 1 mg, N = 5, read-out: AUC0-inf, Mean): 567 ng·h/mL
- AUC(0-inf) (1 mg, Day 1, 1 mg, N = 5, read-out: AUC0-inf, Median): 534 ng·h/mL
- AUC(0-t) (1 mg, Day 1, 1 mg, N = 5, read-out: AUC24hr, GeoMean): 155 ng·h/mL
- AUC(0-t) (1 mg, Day 1, 1 mg, N = 5, read-out: AUC24hr, Mean): 158 ng·h/mL
- AUC(0-t) (1 mg, Day 1, 1 mg, N = 5, read-out: AUC24hr, Median): 171 ng·h/mL
- AUC(0-t) (1 mg, Day 1, 1 mg, N = 5, read-out: AUCTlast, GeoMean): 466 ng·h/mL
- AUC(0-t) (1 mg, Day 1, 1 mg, N = 5, read-out: AUCTlast, Mean): 471 ng·h/mL
- AUC(0-t) (1 mg, Day 1, 1 mg, N = 5, read-out: AUCTlast, Median): 472 ng·h/mL
- Cmax (1 mg, Day 1, 1 mg, N = 5, read-out: Cmax, GeoMean): 9.5 ng/mL
- Cmax (1 mg, Day 1, 1 mg, N = 5, read-out: Cmax, Mean): 9.6 ng/mL
- Cmax (1 mg, Day 1, 1 mg, N = 5, read-out: Cmax, Median): 10 ng/mL
- Tmax (1 mg, Day 1, 1 mg, N = 5, read-out: Tmax, GeoMean): 5.11 h
- Tmax (1 mg, Day 1, 1 mg, N = 5, read-out: Tmax, Mean): 5.62 h
- Tmax (1 mg, Day 1, 1 mg, N = 5, read-out: Tmax, Median): 6 h
- Vd/F (1 mg, Day 1, 1 mg, N = 5, read-out: Vz/F, GeoMean): 118 L
- Vd/F (1 mg, Day 1, 1 mg, N = 5, read-out: Vz/F, Mean): 120 L
- Vd/F (1 mg, Day 1, 1 mg, N = 5, read-out: Vz/F, Median): 108 L
- AUC(0-t) (1 mg, Day 21, 1 mg, N = 5, read-out: AUC24hr, GeoMean): 431 ng·h/mL
- AUC(0-t) (1 mg, Day 21, 1 mg, N = 5, read-out: AUC24hr, Mean): 458 ng·h/mL
- AUC(0-t) (1 mg, Day 21, 1 mg, N = 5, read-out: AUC24hr, Median): 527 ng·h/mL
- Cmax (1 mg, Day 21, 1 mg, N = 5, read-out: Cmax, GeoMean): 23.3 ng/mL
- Cmax (1 mg, Day 21, 1 mg, N = 5, read-out: Cmax, Mean): 24.6 ng/mL
- Cmax (1 mg, Day 21, 1 mg, N = 5, read-out: Cmax, Median): 29 ng/mL
- Tmax (1 mg, Day 21, 1 mg, N = 5, read-out: Tmax, GeoMean): 6.64 h
- Tmax (1 mg, Day 21, 1 mg, N = 5, read-out: Tmax, Mean): 6.88 h
- Tmax (1 mg, Day 21, 1 mg, N = 5, read-out: Tmax, Median): 8 h
- Vd/F (1 mg, Day 21, 1 mg, N = 5, read-out: Vz/F, GeoMean): 173 L
- Vd/F (1 mg, Day 21, 1 mg, N = 5, read-out: Vz/F, Mean): 181 L
- Vd/F (1 mg, Day 21, 1 mg, N = 5, read-out: Vz/F, Median): 170 L
- concentration at 72 h [1]: 7.84 nM
- concentration at 72 h [2]: 10.7 nM
- concentration at 72 h [3]: 8.03 nM
- concentration at 72 h [4]: 8.03 nM
- concentration at 72 h [5]: 5.35 nM
- concentration at 120 h [1]: 3.53 nM
- concentration at 120 h [2]: 5.35 nM
- concentration at 120 h [3]: 3.75 nM
- concentration at 120 h [4]: 2.68 nM
- concentration at 120 h [5]: 2.68 nM
- concentration at 0.5 h [1]: 3.18 nM
- concentration at 0.5 h [2]: 5.35 nM
- concentration at 0.5 h [3]: 2.68 nM
- concentration at 0.5 h [4]: 2.68 nM
- concentration at 0.5 h [5]: 0 nM
- concentration at 1 h [1]: 3.33 nM
- concentration at 1 h [2]: 8.03 nM
- concentration at 1 h [3]: 3.75 nM
- concentration at 1 h [4]: 2.68 nM
- concentration at 1 h [5]: 2.68 nM
- concentration at 2 h [1]: 17 nM
- concentration at 2 h [2]: 18.7 nM
- concentration at 2 h [3]: 17.1 nM
- concentration at 2 h [4]: 18.7 nM
- concentration at 2 h [5]: 13.4 nM
- concentration at 3 h [1]: 17.1 nM
- concentration at 3 h [2]: 18.7 nM
- concentration at 3 h [3]: 17.1 nM
- concentration at 3 h [4]: 16.1 nM
- concentration at 3 h [5]: 16.1 nM
- concentration at 4 h [1]: 20.1 nM
- concentration at 4 h [2]: 26.8 nM
- concentration at 4 h [3]: 20.3 nM
- concentration at 4 h [4]: 18.7 nM
- concentration at 4 h [5]: 18.7 nM
- concentration at 5 h [1]: 23.2 nM
- concentration at 5 h [2]: 26.8 nM
- concentration at 5 h [3]: 23.6 nM
- concentration at 5 h [4]: 24.1 nM
- concentration at 5 h [5]: 16.1 nM
- concentration at 8 h [1]: 21.1 nM
- concentration at 8 h [2]: 32.1 nM
- concentration at 8 h [3]: 22 nM
- concentration at 8 h [4]: 21.4 nM
- concentration at 8 h [5]: 13.4 nM
- concentration at 10 h [1]: 21.6 nM
- concentration at 10 h [2]: 32.1 nM
- concentration at 10 h [3]: 22.5 nM
- concentration at 10 h [4]: 21.4 nM
- concentration at 10 h [5]: 13.4 nM
- concentration at 12 h [1]: 17.1 nM
- concentration at 12 h [2]: 21.4 nM
- concentration at 12 h [3]: 18.2 nM
- concentration at 12 h [4]: 21.4 nM
- concentration at 12 h [5]: 8.03 nM
- concentration at 24 h [1]: 14.7 nM
- concentration at 24 h [2]: 18.7 nM
- concentration at 24 h [3]: 15 nM
- concentration at 24 h [4]: 16.1 nM
- concentration at 24 h [5]: 10.7 nM
- AUC(0-inf) (2 mg, Day 1, 2 mg, N 6, read-out: AUC0-inf, GeoMean): 1080 ng·h/mL
